Our source for the IC50 values is patent publication US10457662B2, “Substituted amides for treating and preventing cancer” (The Regents of the University of Michigan, priority 2015, dated 2019).

Read-outs that look alike come from different tables or passages of the source.

By IC50 is commonly meant the concentration that inhibits the measured activity by half.

Holding throughout (conditions): Homo sapiens
In assay [1] the test system is MiaPaCa-2. Nature of the assay: MTT assay, MiaPaCa-2. As for the experimental part:
Cells were treated with QN523 for 1, 4, 8, 24, 48, 72 h and left in culture in fresh media. MTT assay was performed 72 h after initiation of treatment. Data points represent Mean±SD from three independent experiments.
(§1) Experiments conducted during the course of developing embodiments for the present invention involved performance of a phenotypic screen of a library of 20,000 small-molecules representing five million compounds. […] Subsequently, a lead optimization campaign was performed to synthesize a series of close analogs. Initially, the 50 analogs were tested in three pancreatic cancer cell lines using MTT assay (Table 1).
(§2) For in vitro studies, compounds were dissolved in DMSO at 10 mM as stock solutions and stored at −20° C. For in vivo studies, QN523 was dissolved in a vehicle containing 5% DMSO, 35% propylene glycol and 60% saline, and administered at 100 uL through intraperitoneal injections.
(In general: Tetrazolium dyes change colour on reduction, which living cells bring about.)

Assay [2] concerns Panc-1. Nature of the assay: MTT assay, Panc-1. It counts as cell-based. As for the experimental part: as §1, §2
The test system of assay [3] is BxPC-3. Nature of the assay: MTT assay, BxPC-3. The class given is cell-based. As for the experimental part: as §1, §2
Setting [4] is: MIA PaCa-2, read-out: IC50 Values MiaPaCa-2.
Setting [5] is: PANC-1, MTT assay, Mean ± SD, three independent experiments, read-out: IC50 Values Panc-1.
The mark [6] stands for this setting: BXPC-3, MTT assay, Mean ± SD, three independent experiments, read-out: IC50 Values BxPC-3.
The mark [7] stands for this setting: MIA PaCa-2, read-out: IC50 Values MiaPaCa-2, MTT assay, Mean ± SD, three independent experiments.
Where [8] appears, read: PANC-1, read-out: IC50 Values Panc-1.
[9] abbreviates: BXPC-3, read-out: IC50 Values BxPC-3.

Take `NCCOc1cc(NC(=O)c2cnccn2)c2ncccc2c1` [QN154, Pyrazine-2-carboxylic acid [6-(2-aminoethoxy)quinolin-8-yl]amide]: the IC50 in assay [1] (setting [4]), in assay [2] (setting [5]) and in assay [3] (setting [6]) was above 10 µM throughout.
With `O=C(Nc1cccc2cccnc12)c1ccc(Br)nc1` [QN524, 6-Bromo-N-quinolin-8-yl-nicotinamide], the 50% inhibitory concentration (IC50) in assay [1] (setting [7]), in assay [2] (setting [8]) and in assay [3] (setting [9]) was above 10 µM throughout.
As to `Cc1cnc(C(=O)Nc2ccc3ncccc3c2)cn1` [QN520, 5-Methylpyrazine-2-carboxylic acid quinolin-6-ylamide], the IC50 in assay [1] (setting [4]), in assay [2] (setting [5]) and in assay [3] (setting [6]) was above 10 µM throughout.
`COc1cc(/C=C(\C#N)C(=O)Nc2cccc3cccnc23)cc(OC)c1OC` [QN610]: the IC50 in assay [1] (setting [4]), in assay [2] (setting [5]) and in assay [3] (setting [6]) was above 10 µM throughout.
On to `NCCOc1cc(NC(=O)c2ncccn2)c2ncccc2c1` [QN162, Pyrimidine-2-carboxylic acid [6-(2-aminoethoxy)quinolin-8-yl]amide], for which the IC50 in assay [1] (setting [4]), in assay [2] (setting [5]) and in assay [3] (setting [6]) was above 10 µM in each case.
For the molecule `O=C(Nc1cc(OCCC2CCNCC2)cc2cccnc12)c1ncccn1` [QN165, Pyrimidine-2-carboxylic acid [6-(2-piperidin-4-yl-ethoxy)quinolin-8-yl]amide], the IC50 in assay [1] (setting [4]), in assay [2] (setting [5]) and in assay [3] (setting [6]) was above 10 µM throughout.
As to `O=C(Nc1cc(OCCC2CCNCC2)cc2cccnc12)c1cnccn1` [QN163, Pyrazine-2-carboxylic acid [6-(2-piperidin-4-yl-ethoxy)quinolin-8-yl]amide], the half-maximal inhibitory concentration (IC50) in assay [1] (setting [4]), in assay [2] (setting [5]) and in assay [3] (setting [6]) was above 10 µM throughout.
Regarding `O=C(Nc1cccc2cccnc12)c1ccc(Br)cn1` [QN529, 5-Bromopyridine-2-carboxylic acid quinolin-8-ylamide], the half-inhibitory concentration (IC50) is 1.83 ± 0.72 µM in assay [1] (setting [7]), 4 ± 0.8 µM in assay [2] (setting [8]) and above 10 µM in assay [3] (setting [9]).
`Cc1ccc2cccc(NC(=O)c3ncccn3)c2n1` [QN660, Pyrimidine-2-carboxylic acid (2-methylquinolin-8-yl)amide]: the half-inhibitory concentration (IC50) in assay [1] (setting [4]), in assay [2] (setting [5]) and in assay [3] (setting [6]) was above 10 µM throughout.
On to `CC(C)(C)OC(=O)NCCOc1cc(NC(=O)c2ncccn2)c2ncccc2c1` [QN153, (2-{8-[(Pyrimidine-2-carbonyl)amino]quinolin-6-yloxy}ethyl)carbamic acid tert-butyl ester], for which the half-inhibitory concentration (IC50) in assay [1] (setting [4]), in assay [2] (setting [5]) and in assay [3] (setting [6]) was above 10 µM each time.
With `O=C(Nc1cccc2cccnc12)c1ccc(F)nc1` [QN532, 6-Fluoro-N-quinolin-8-yl-nicotinamide], the 50% inhibitory concentration (IC50) in assay [1] (setting [7]), in assay [2] (setting [8]) and in assay [3] (setting [9]) was above 10 µM in each case.
`O=C(Nc1nccc2cccnc12)c1cnccn1` [QN655, Pyrazine-2-carboxylic acid [1,7]naphthyridin-8-ylamide]: the 50% inhibitory concentration (IC50) in assay [1] (setting [4]) amounted to 7.7 ± 1.53 µM; in assay [2] (setting [5]) it was 6.72 ± 1.02 µM; in assay [3] (setting [6]) it was 7.22 ± 1.02 µM.
Taken in the same sequence, the figures for `Cc1cnc(C(=O)Nc2cc(OCCN)cc3cccnc23)cn1` [QN156, 5-Methylpyrazine-2-carboxylic acid [6-(2-aminoethoxy)quinolin-8-yl]amide] were above 10 µM, above 10 µM and above 10 µM.
Taken in the same sequence, the figures for `N#C/C(=C\c1cccc(Br)n1)C(=O)Nc1cccc2cccnc12` [QN608] were above 10 µM, above 10 µM and above 10 µM.
Taken in the same sequence, the figures for `Cc1cnc(C(=O)Nc2cc(Cl)cc3cccnc23)cn1` [QN793, N-(6-Chloroquinolin-8-yl)-5-methylpyrazine-2-carboxamide] were 1.5 ± 0.5 µM, 1.77 ± 0.25 µM and 5.2 ± 0.3 µM.
Take `CC(C)(C)OC(=O)N1CCC(CCOc2cc(NC(=O)c3ncccn3)c3ncccc3c2)CC1` [QN161, 4-(2-{8-[(Pyrimidine-2-carbonyl)amino]quinolin-6-yloxy}ethyl)piperidine-1-carboxylic acid tert-butyl ester]: the IC50 in assay [1] (setting [4]), in assay [2] (setting [5]) and in assay [3] (setting [6]) was above 10 µM each time.
On to `Cc1ccc(C(=O)Nc2cccc3cccnc23)cn1` [QN522, 6-Methyl-N-quinolin-8-yl-nicotinamide], for which the IC50 in assay [1] (setting [7]), in assay [2] (setting [8]) and in assay [3] (setting [9]) was above 10 µM throughout.
Turning to `Cc1cnc(C(=O)Nc2cccc3ccc(C)nc23)cn1` [QN632, 5-Methylpyrazine-2-carboxylic acid (2-methylquinolin-8-yl)amide], the half-inhibitory concentration (IC50) in assay [1] (setting [4]), in assay [2] (setting [5]) and in assay [3] (setting [6]) was above 10 µM throughout.
Turning to `CC(C)(C)OC(=O)N1CCC(CCOc2cc(NC(=O)c3cnccn3)c3ncccc3c2)CC1` [QN159, 4-(2-{8-[(Pyrazine-2-carbonyl)amino]quinolin-6-yloxy}ethyl)piperidine-1-carboxylic acid tert-butyl ester], the IC50 in assay [1] (setting [4]) was 3.67 ± 1.15 µM; in assay [2] (setting [5]), 9.5 ± 0.5 µM; in assay [3] (setting [6]) it was 3.33 ± 0.58 µM.
On to `Cc1cnc(C(=O)Nc2cc(OCCN(C)C)cc3cccnc23)cn1` [QN148, 5-Methyl-pyrazine-2-carboxylic acid [6-(2-dimethylamino-ethoxy)-quinolin-8-yl]-amide], for which the figures for the IC50 in assay [1] (setting [4]), in assay [2] (setting [5]) and in assay [3] (setting [6]) were 1.8 ± 0.46 µM, 4.5 ± 0.5 µM and 9.67 ± 0.58 µM, respectively.
For the molecule `Cc1cnc(C(=O)Nc2ccc(Br)c3cccnc23)cn1` [QN571, 5-Methylpyrazine-2-carboxylic acid (5-bromoquinolin-8-yl)amide], the IC50 in assay [1] (setting [4]) was 2.23 ± 0.31 µM; in assay [2] (setting [5]) it was 6.83 ± 1.73 µM; in assay [3] (setting [6]), above 10 µM.
On to `CN(C)CCOc1cc(NC(=O)c2cnccn2)c2ncccc2c1` [QN147, Pyrazine-2-carboxylic acid [6-(2-dimethylamino-ethoxy)-quinolin-8-yl]-amide], for which the IC50 in assay [1] (setting [4]), in assay [2] (setting [5]) and in assay [3] (setting [6]) was above 10 µM each time.
`O=C(Nc1cc(OCCN2CCOCC2)cc2cccnc12)c1cnccn1` [QN137, Pyrazine-2-carboxylic acid [6-(2-morpholin-4-yl-ethoxy)-quinolin-8-yl]-amide]: the results for the 50% inhibitory concentration (IC50) in assay [1] (setting [4]), in assay [2] (setting [5]) and in assay [3] (setting [6]) were 1.7 ± 0.52 µM, 8.17 ± 1.61 µM and 5.17 ± 1.61 µM, respectively.
Taken in the same sequence, the figures for `COc1cc(NC(=O)c2ncccn2)c2ncccc2c1` [QN113] were 1.3 ± 0.35 µM, 9 ± 1.41 µM and above 10 µM.
For `Cc1ccc2cccc(NC(=O)c3cnccn3)c2n1` [QN634, Pyrazine-2-carboxylic acid (2-methylquinolin-8-yl)amide], the IC50 in assay [1] (setting [4]), in assay [2] (setting [5]) and in assay [3] (setting [6]) was above 10 µM in each case.
As for `O=C(Nc1cccc2cccnc12)c1cccnn1` [QN566, Pyridazine-3-carboxylic acid quinolin-8-ylamide], the half-maximal inhibitory concentration (IC50) in assay [1] (setting [7]) was 8.5 ± 1.03 µM; in assay [2] (setting [8]), above 10 µM; in assay [3] (setting [9]) it was above 10 µM.
With `O=C(Nc1cccc2cccnc12)c1cnc2ccccc2n1` [QN572, Quinoxaline-2-carboxylic acid quinolin-8-ylamide], the IC50 in assay [1] (setting [7]), in assay [2] (setting [8]) and in assay [3] (setting [9]) was above 10 µM throughout.
As to `O=C(Nc1cc(Cl)cc2cccnc12)c1cnccn1` [QN792, N-(6-Chloroquinolin-8-yl)pyrazine-2-carboxamide], the IC50 in assay [1] (setting [4]) is 2.83 ± 0.76 µM; in assay [2] (setting [5]), 2.7 ± 0.52 µM; in assay [3] (setting [6]) it was above 10 µM.
As for `Cc1cnc(C(=O)Nc2cc(OCCC3CCNCC3)cc3cccnc23)cn1` [QN164, 5-Methylpyrazine-2-carboxylic acid [6-(2-piperidin-4-yl-ethoxy)quinolin-8-yl]amide], the IC50 in assay [1] (setting [4]) is 6.17 ± 1.04 µM; in assay [2] (setting [5]) it was above 10 µM; in assay [3] (setting [6]), 8.33 ± 1.53 µM.
With `Nc1ccn([C@@H]2O[C@H](CO)[C@@H](O)C2(F)F)c(=O)n1` [Gemcitabine, reference compound], the IC50 in assay [1] (setting [4]) was determined as 0.11 ± 0.07 µM; in assay [2] (setting [5]) it was 0.2 ± 0.1 µM; in assay [3] (setting [6]), 0.05 ± 0.02 µM.
For the molecule `Cc1cnc(C(=O)Nc2cccc3ncccc23)cn1` [QN521, 5-Methylpyrazine-2-carboxylic acid quinolin-5-ylamide], the IC50 in assay [1] (setting [4]), in assay [2] (setting [5]) and in assay [3] (setting [6]) was above 10 µM throughout.
As for `O=C(Nc1cccc2cccnc12)c1cnc(Cl)cn1` [QN573, 5-Chloropyrazine-2-carboxylic acid quinolin-8-ylamide], the concentration for half-maximal inhibition (IC50) in assay [1] (setting [7]) was 7 ± 1.3 µM; in assay [2] (setting [8]), 9.3 ± 0.8 µM; in assay [3] (setting [9]) it was above 10 µM.
Regarding `Cc1cnc(C(=O)Nc2cc(OCCC3CCN(C(=O)OC(C)(C)C)CC3)cc3cccnc23)cn1` [QN160], the IC50 in assay [1] (setting [4]) is 9 ± 1.73 µM; in assay [2] (setting [5]) it was 9.67 ± 0.58 µM; in assay [3] (setting [6]), 9.33 ± 1.15 µM.
As to `CC(COc1ccccc1)N(CCCl)Cc1ccccc1` (stereo not shown) [pheoxybenzamine, reference compound], in assay [1] (MIA PaCa-2, read-out: IC50 in MiaPaCa-2, comparison compounds), the IC50 was above 30 µM.
Regarding `N#C/C(=C\c1ccc(O)c(O)c1)C(=O)Nc1cccc2cccnc12` [QN609], the IC50 in assay [1] (setting [4]), in assay [2] (setting [5]) and in assay [3] (setting [6]) was above 10 µM each time.
